Target: T1, Epidermal growth factor receptor (EGFR) (Homo sapiens, UniProt P00533)
T1 construct: extracellular domain (ECD), recombinant human
Test: MST with recombinant EGFR ECD (also BIAcore SPR, Kd […]; CETSA in A549 and H1975)
Assay type: binding

T1 sequence (P00533 25-645 limits assumed): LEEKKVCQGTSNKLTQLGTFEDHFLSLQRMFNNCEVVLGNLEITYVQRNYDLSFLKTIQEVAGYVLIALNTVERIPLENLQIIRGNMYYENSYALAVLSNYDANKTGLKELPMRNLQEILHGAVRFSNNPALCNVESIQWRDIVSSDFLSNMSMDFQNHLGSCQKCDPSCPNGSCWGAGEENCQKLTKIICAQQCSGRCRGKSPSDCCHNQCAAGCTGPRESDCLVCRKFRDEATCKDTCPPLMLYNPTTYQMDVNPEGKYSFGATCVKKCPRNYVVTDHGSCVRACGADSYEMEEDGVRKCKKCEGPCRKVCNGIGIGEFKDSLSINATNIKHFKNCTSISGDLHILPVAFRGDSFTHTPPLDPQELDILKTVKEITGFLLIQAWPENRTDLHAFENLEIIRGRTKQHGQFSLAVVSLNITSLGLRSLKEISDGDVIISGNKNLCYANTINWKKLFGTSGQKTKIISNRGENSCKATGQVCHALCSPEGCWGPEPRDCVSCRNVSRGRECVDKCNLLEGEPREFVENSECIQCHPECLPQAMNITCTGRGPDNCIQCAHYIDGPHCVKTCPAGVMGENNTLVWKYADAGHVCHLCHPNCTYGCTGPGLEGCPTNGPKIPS

C=C(C)[C@@H]1CC[C@]2(C(=O)N3CCC(N4CCCCC4)CC3)CC[C@]3(C)[C@H](CC[C@@H]4[C@@]5(C)CC[C@H](O)[C@@](C)(CO)[C@@H]5CC[C@]43C)[C@@H]12 [compound 187, DPBA]
Kd: 38.4 ± 1.75 µM

From paper PMC7544691, “Discovery of a novel EGFR ligand DPBA that degrades EGFR and suppresses EGFR-positive NSCLC growth” (Signal Transduction and Targeted Therapy, 2020)
